{"source": "patent US7572903B1", "about": "“Method of regulation of bacterial persister status” (priority 2005, dated 2009)", "type_in_all_cases": "cell-based, Escherichia coli", "key": {"[1]": {"test_system": "E. coli K-12 C600::mTn5gusA-pgfp21", "conditions": "mid-log phase", "protocol": "In the latter set of experiments reaction mixtures included nutrient broth (25% normal strength) in order to facilitate growth during the exposure. […] At various time intervals samples (0.1 mL) were removed and serially diluted either in sterile phosphate buffered saline (pH 7, 0.1M) or lecithin (2% w/v)—tween 80 (3% w/v) broth as a specific neutralizer of quaternary ammonium biocides (Wright, et al., J. App. Bacterial. 62:309-314, 1986). Samples of appropriate dilutions were plated, in triplicate, onto nutrient agar and colonies counted after 16 hour incubation at 37° C. Survival was expressed relative to untreated control suspensions.\n(§1) When cells were required for culture and/or susceptibility determinations collections were made of discrete fractions of cells within the upper 1 and 5%, and the lower 1, 5 and 10% of fluorescence intensity. Control populations consisted of the entire population of cells having been passed through the cytometer and sorter. Cell sort rates of circa 10^3/sec were deployed enabling collection of circa 10^4-5 cfu within 10 minutes. Cell concentrations were adjusted from the cytometer count by dilution with fresh PBS. Suspensions of collected cells were used immediately for microbiological analysis.\nCollections of poorly fluorescent cells from mid-log phase cultures were made and susceptibility re-determined towards tetradecylbenzalkonium chloride, and towards various other treatment agents."}, "[2]": {"test_system": "E. coli K-12 C600::mTn5gusA-pgfp21", "assay": "Time-dependent survival of FACS-sorted fractions exposed to tetradecylbenzalkonium chloride", "protocol": "In the latter set of experiments reaction mixtures included nutrient broth (25% normal strength) in order to facilitate growth during the exposure. This was necessary in order to get adequate killing by β-lactam antibiotics. At various time intervals samples (0.1 mL) were removed and serially diluted either in sterile phosphate buffered saline (pH 7, 0.1M) or lecithin (2% w/v)—tween 80 (3% w/v) broth as a specific neutralizer of quaternary ammonium biocides (Wright, et al., J. App. Bacterial. 62:309-314, 1986). Samples of appropriate dilutions were plated, in triplicate, onto nutrient agar and colonies counted after 16 hour incubation at 37° C. Survival was expressed relative to untreated control suspensions.\nas §1\nThe FACS vantage was also deployed to separate populations of cells, from stationary phase cultures, corresponding to the lower (1, 5 and 10%) fluorescence intensity cells and the upper (1 and 5%) fluorescence intensity cells (FIG. 1). These cells were immediately subjected to exposure to tetradecyl-benzalkonium chloride (3.68 μg/mL) for various times up to 20 minutes. After neutralization in lecithin-tween 80 broth the numbers of surviving cells was determined by plate count. In all instances the shapes of the survival curves were non-linear indicating an initial rapid phase of killing followed by a plateau phase. […] Survival beyond 10 minutes exposure therefore reflected the presence of non-susceptible cells."}, "[3]": {"test_system": "E. coli K-12 C600::mTn5gusA-pgfp21 intergenic knockouts", "assay": "Susceptibility of putative intergenic knockouts towards cetrimide USP", "from_the_text": "Intergenic knockouts were made to E. coli K-12 C600::mTn5gusA-pgfp21 with respect to IG216, IG477, IG870, IG873, IG1602, IG1604 and IG1484 using the protocol described by Datsenko, et al. (Proceedings of the National Academy of Sciences of the United States of America 97, 6640-6645, 2000). Plasmid pKD3 was used as a template to generate PCR products with a selectable antibiotic resistance marker (chloramphenicol) and 40 nt homology extensions relating the genes flanking each targeted intergenic region. Modifications of the method included a 10-fold increase in the concentration of L-arabinose (10 mM) for induction of λ Red genes in the helper plasmid pKD46, and 50-fold increases in the amount of PCR product (500 ng) used to transform E. coli K-12 C600 containing pKD46. Further amendments to the method were associated with recovery of transformants following electroporation. […]\nPutative intergenic knockouts were grown as liquid culture in nutrient broth, harvested at mid-exponential phase, washed in PBS as described in section 2.1 (a) and adjusted to 1×10^5 cfu/ml in PBS. […] The viability of cells in the antimicrobial and control tubes was monitored after 1 hour incubation at 37° C. at 200 rpm in an orbital shaker. […]"}, "[4]": {"test_system": "E. coli CC118 overexpression and suppression mutants", "assay": "Antimicrobial susceptibility of conditional overexpression and antisense suppression strains (cetrimide challenge)", "conditions": "relative to parental E. coli CC118, 9 μg/ml cetrimide 1 h", "protocol": "Conditional overexpression and anti-sense suppression strains of E. coli (Table 14) were grown as liquid cultures in nutrient broth. Expression of target sense and antisense sequences was induced by addition of IPTG (Bioline), during early exponential phase, to a final concentration of 0.1 mM. Cells were grown until mid-late exponential (1.75 h after IPTG addition) or to stationary phase (14.5 h after ITPG addition), and harvested by centrifugation (10,000 x g, 10 min) at 4° C. The supernatants were decanted and the pellets suspended into equal volumes of PBS. The centrifugation and washing steps were repeated twice, after which the pellets were re-suspended in PBS to an optical density (OD470 nm) of 1.0, corresponding to approximately 1-2×10^8 cfu/ml mid-exponential or stationary phase cells.\nCells were exposed to 9 μg/ml cetrimide USP for 1 hr in PBS with final concentration of 5×10^7 cells/ml. Controls without the addition of the biocide containing the same concentration of cells and PBS were run in parallel. Following incubation samples (0.1 ml) were removed and serially diluted in lecithin (2% w/v)—tween 80 (3% w/v) broth as a specific neutralizer of quaternary ammonium biocides (Wright, et al., J. Appd. Bacteriol, 62, 309-314, 1986). Samples of appropriate dilutions were plated, in triplicate, onto nutrient agar and colonies counted after 16 h incubation at 37° C. Survival was expressed relative to untreated control suspensions that were similarly treated with IPTG. […] The susceptibility of the parental strain E. coli (CC118 towards cetrimide USP was investigated in the same experiments and was used as a reference to determine the effect of overexpression and antisense suppression of target sequences."}}, "note": "Like-named read-outs stand apart in the source and are kept apart here. Bridge positions count the residues as written; N and C are the ends. Square brackets hold non-standard residues; d marks the D form. Peptide text beside a SMILES is read from it. * marks the point of attachment. Ileψ(thiazoline)Cys = CC[C@H](C)[C@H](N)C1=N[C@H](C(=O)*)CS1; dOrn = NCCC[C@@H](N)C(=O)O"}
{"compound": "NCC[C@H](O)C(=O)N[C@@H]1C[C@H](N)[C@@H](O[C@H]2O[C@H](CN)[C@@H](O)[C@H](O)[C@H]2O)[C@H](O)[C@H]1O[C@H]1O[C@H](CO)[C@@H](O)[C@H](N)[C@H]1O", "note": "[Amikacin, amikacin]", "values": [{"measurement": "percentage survival relative to untreated controls", "setting": "[1]; 0-5% FI fraction, amikacin 0.75 μg/ml, 1 hour, SD in parenthesis", "value": "68 (17) %"}, {"measurement": "percentage survival relative to untreated controls", "setting": "[1]; 95-100% FI fraction, amikacin 0.75 μg/ml, 1 hour, SD in parenthesis", "value": "32 (0) %"}, {"measurement": "percentage survival relative to untreated controls", "setting": "[1]; Control 0-100% fluorescence fraction, amikacin 0.75 μg/ml, 1 hour, SD of triplicate in parenthesis", "value": "39 (3.0) %"}]}
{"compound": "CC[C@H](C)[C@H](N)C1=N[C@H](C(=O)N[C@@H](CC(C)C)C(=O)N[C@H](CCC(=O)O)C(=O)N[C@H](C(=O)N[C@H]2CCCCNC(=O)[C@H](CC(N)=O)NC(=O)[C@@H](CC(=O)O)NC(=O)[C@H](Cc3cnc[nH]3)NC(=O)[C@@H](Cc3ccccc3)NC(=O)[C@H]([C@@H](C)CC)NC(=O)[C@@H](CCCN)NC2=O)[C@@H](C)CC)CS1", "note": "[Bacitracin, bacitracin] ({Ileψ(thiazoline)Cys}-L[dE]IK[dOrn]I[dF]H[dD]N; lactam 4-C)", "values": [{"measurement": "percentage survival relative to untreated controls", "setting": "[1]; 0-5% FI fraction, bacitracin 0.7 mg/ml, 40 min, SD in parenthesis", "value": "83 (1.5) %"}, {"measurement": "percentage survival relative to untreated controls", "setting": "[1]; 95-100% FI fraction, bacitracin 0.7 mg/ml, 40 min, SD in parenthesis", "value": "34 (4.6) %"}, {"measurement": "percentage survival relative to untreated controls", "setting": "[1]; Control 0-100% fluorescence fraction, bacitracin 0.7 mg/ml, 40 min, SD in parenthesis", "value": "57 (8.5) %"}]}
{"compound": "O=C(O)c1cn(C2CC2)c2cc(N3CCNCC3)c(F)cc2c1=O", "note": "[Ciprofloxacin, ciprofloxacin]", "values": [{"measurement": "percentage survival relative to untreated controls", "setting": "[1]; 0-5% FI fraction, ciprofloxacin 0.05 μg/ml, 1 hour, SD in parenthesis", "value": "44 (2.0) %"}, {"measurement": "percentage survival relative to untreated controls", "setting": "[1]; 95-100% FI fraction, ciprofloxacin 0.05 μg/ml, 1 hour, SD in parenthesis", "value": "35 (3.6) %"}, {"measurement": "percentage survival relative to untreated controls", "setting": "[1]; Control 0-100% fluorescence fraction, ciprofloxacin 0.05 μg/ml, 1 hour, SD in parenthesis", "value": "40 (0) %"}]}
{"compound": "Tetradecylbenzalkonium chloride", "values": [{"measurement": "proportion of persister cells in the cell fraction", "setting": "[2]; least intensely fluorescent cell fraction (1%), stationary phase, 3.68 μg/mL, exposure up to 20 minutes", "value": "> 80", "unit": "%"}, {"measurement": "survival of cells", "setting": "[2]; most fluorescently intense cells, stationary phase, 3.68 μg/mL, after 1 minute exposure", "value": "eradicated beyond detection"}, {"measurement": "proportion of persisters in mid-log phase compared with stationary phase", "setting": "[2]; poorly fluorescent cells from mid-log phase cultures", "value": "substantially reduced"}]}
{"compound": "cetrimide [Cetrimide USP]", "values": [{"measurement": "percentage survival relative to untreated controls", "setting": "[1]; 0-5% FI fraction, cetrimide USP 0.5 μg/ml, 1 hour, SD in parenthesis", "value": "22 (3.7) %"}, {"measurement": "percentage survival relative to untreated controls", "setting": "[1]; 95-100% FI fraction, cetrimide USP 0.5 μg/ml, 1 hour, SD in parenthesis", "value": "2.5 (0.97) %"}, {"measurement": "percentage survival relative to untreated controls", "setting": "[1]; Control 0-100% fluorescence fraction, cetrimide USP 0.5 μg/ml, 1 hour, SD in parenthesis", "value": "18 (3.4) %"}, {"measurement": "susceptibility of intergenic knockout clones compared with controls", "setting": "[3]; IG216, IG873, IG1484 and IG1602 knockouts, at both the lower and higher treatment level", "value": "profoundly changed"}, {"measurement": "susceptibility of intergenic knockout clones compared with controls", "setting": "[3]; all developed clones (IG216, IG477, IG870, IG873, IG1602, IG1604, IG1484), 0.6 and 2.0 μg/ml, 1 hour", "value": "substantially reduced"}, {"measurement": "Fold Change in persister fraction (fold increase)", "setting": "[4]; strain lit (+), exponential phase, IPTG 0.1 mM 1.75 h", "value": 3.05, "unit": "fold"}, {"measurement": "Fold Change in persister fraction (fold increase)", "setting": "[4]; strain lit (−), exponential phase, IPTG 0.1 mM 1.75 h", "value": 1.31, "unit": "fold"}, {"measurement": "Fold Change in persister fraction (fold decrease)", "setting": "[4]; strain lit (−), stationary phase, IPTG 0.1 mM 14.5 h", "value": 4.08, "unit": "fold decrease"}, {"measurement": "Fold Change in persister fraction (fold increase)", "setting": "[4]; strain mcrA (+), exponential phase, IPTG 0.1 mM 1.75 h", "value": 2.82, "unit": "fold"}, {"measurement": "Fold Change in persister fraction (fold increase)", "setting": "[4]; strain pin (+), exponential phase, IPTG 0.1 mM 1.75 h", "value": 10.38, "unit": "fold"}, {"measurement": "Fold Change in persister fraction (fold increase)", "setting": "[4]; strain pin (−), exponential phase, IPTG 0.1 mM 1.75 h", "value": 18.98, "unit": "fold"}, {"measurement": "Fold Change in persister fraction", "setting": "[4]; strain pin (−), stationary phase, IPTG 0.1 mM 14.5 h", "value": "No persisters detected"}, {"measurement": "Fold Change in persister fraction (fold decrease)", "setting": "[4]; strain yagL (+), exponential phase, IPTG 0.1 mM 1.75 h", "value": 1.01, "unit": "fold"}, {"measurement": "Fold Change in persister fraction (fold increase)", "setting": "[4]; strain ykgK (+), exponential phase, IPTG 0.1 mM 1.75 h", "value": 22.85, "unit": "fold"}, {"measurement": "Fold Change in persister fraction (fold decrease)", "setting": "[4]; strain ykgK (−), exponential phase, IPTG 0.1 mM 1.75 h", "value": 5.35, "unit": "fold"}, {"measurement": "Fold Change in persister fraction", "setting": "[4]; strain ykgK (−), stationary phase, IPTG 0.1 mM 14.5 h", "value": "No persisters detected"}, {"measurement": "Fold Change in persister fraction (fold decrease)", "setting": "[4]; strain ykgM (+), exponential phase, IPTG 0.1 mM 1.75 h", "value": 1.65, "unit": "fold"}, {"measurement": "Fold Change in persister fraction (fold decrease)", "setting": "[4]; strain ykgM (−), exponential phase, IPTG 0.1 mM 1.75 h", "value": 1.83, "unit": "fold"}, {"measurement": "Fold Change in persister fraction", "setting": "[4]; strain ykgM (−), stationary phase, IPTG 0.1 mM 14.5 h", "value": "No persisters detected"}]}
